Data on nine molecules can be found in PubChem BioAssay (NCI).

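Following 48 hours of exposure in 96-well plates, responses at five concentrations were used to interpolate endpoints linearly. GI50 = concentration required for 50% inhibition of growth. At the TGI there is no net growth.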

Holding throughout (test): DTP human tumour cell line panel, 48 h
Test [1] relates to K-562 leukemia.
Test [2] relates to T-47D breast.
The subject of test [3] is SF-539 CNS.
Test [4] concerns CAKI-1 renal.
For test [5], the system named is NCI-H460 lung.
Test [6] has as its system OVCAR-3 ovarian.
The subject of test [7] is RXF 393 renal.
In test [8] the test system is SN12C renal.
Test [9] concerns M14 melanoma.
The test system of test [10] is OVCAR-8 ovarian.

For the molecule `CC(C)c1ccc(/C(C(=O)O)=C(\O)C(=O)O)cc1`, the concentration for total growth inhibition (TGI) in test [1], in test [2], in test [3], in test [4], in test [5] and in test [6] was over 100 µM each time. The TGI in [7], in test [8], in [9] and in test [10] was over 100 µM in each case.
`NNc1cccc(/C=C/c2ccccc2)cc1=O`: the GI50 was 3.13 µM in [1]; 5.36 µM in test [2]; 23 µM in [3]; 2.6 µM in test [4]; 3.61 µM in [5]; 7.35 µM in test [6]. In addition, the GI50 was 46.5 µM in test [7], 15.2 µM in [8], 12.4 µM in [9] and 3.74 µM in test [10]. The TGI was over 100 µM in test [1]; 92.5 µM in test [2]; over 100 µM in test [3]; 8.17 µM in test [4]; 42.3 µM in [5]; 62.6 µM in test [6]. The TGI in test [7] was over 100 µM; in test [8] it was over 100 µM; in test [9], 44.7 µM; in test [10], over 100 µM.
For `O=C1C=C(Br)C(=O)C12CCc1ccccc12` (stereo not given), the TGI in test [1] was 9.26 µM; in test [2], 50.4 µM; in test [3], 35.6 µM; in test [4], 16.3 µM; in test [5], 48 µM; in test [6], 41.8 µM. Besides, the total growth inhibition concentration (TGI) in test [7] came to 19.1 µM; in [8], 35 µM; in test [9], 19.3 µM; in test [10], 64.6 µM.
Consider `CN1CCCN(C)C1c1cc([N+](=O)[O-])ccc1O`, for which the TGI in test [1] is over 100 µM; in test [2], over 100 µM; in test [3], 74.9 µM; in [4], over 100 µM; in [5], over 100 µM; in [6], over 100 µM. Besides, the TGI in [7] was over 100 µM; in test [8], 85.7 µM; in test [9], 58.5 µM; in test [10], over 100 µM.
`COc1ccc(/C=C/c2nc(NCCCN(C)C)c3ccccc3n2)cc1`: the GI50 in test [1] was 1.99 µM; in test [2], 1.81 µM; in [3] it was 1.69 µM; in test [4], 16.5 µM; in [5] it was 2.19 µM; in test [6] it was 4.88 µM. The GI50 was 3.68 µM in test [7], 11.8 µM in test [8], 2.16 µM in [9] and 4.75 µM in test [10]. Besides, the TGI in [1] was found to be 4.4 µM; in test [2] it was 3.61 µM; in test [3], 3.15 µM; in [4], 33.7 µM; in [5], 4.7 µM; in test [6], 11.4 µM. Moreover, the TGI in test [7] came to 12.1 µM; in [8], 29.3 µM; in test [9], 4.81 µM; in [10], 18.7 µM.
As for `C=C1C(=O)O[C@H]2[C@H]1CC/C(COC(=O)NCc1ccc(Cn3c(=O)sn(CCCCl)c3=O)cc1)=C\CC[C@@]1(C)O[C@@H]21`, the GI50 in test [1] is 0.726 µM; in test [2], 1.97 µM; in test [3] it was 1.74 µM; in [4], 2.05 µM; in test [5], 11.3 µM; in [6], 0.776 µM. The GI50 is 1.35 µM in test [7], 1.36 µM in [8], 1.93 µM in test [9] and 2.32 µM in [10]. Moreover, the TGI in test [1] was over 100 µM; in test [2], 5.58 µM; in test [3], 3.3 µM; in test [4], 5.33 µM; in [5], 30.5 µM; in [6], 2.09 µM. Moreover, the total growth inhibition concentration (TGI) in test [7] was determined as 2.8 µM; in test [8], 3.15 µM; in test [9] it was 4.5 µM; in test [10] it was 5.42 µM.
With `CCCCCCCCCCN(CCCCCCCCCC)CC(=O)c1ccc2cc(Br)c3ccccc3c2c1`, the GI50 in [1] is 2.05 µM; in [2] it was 2.44 µM; in [3], 2.05 µM; in test [4], 1.7 µM; in test [5], 1.98 µM; in test [6] it was 1.98 µM. Moreover, the GI50 in [7] was 1.98 µM; in test [8], 1.6 µM; in test [9] it was 1.91 µM; in test [10] it was 2.09 µM. The TGI in [1] was 4.84 µM; in test [2], 5.98 µM; in test [3], 3.7 µM; in [4], 4.43 µM; in test [5] it was 3.98 µM; in [6], 3.54 µM. The TGI was determined as 3.5 µM in test [7], 3.33 µM in test [8], 3.53 µM in test [9] and 4.31 µM in [10].
As for `N#Cc1c(-c2ccccc2)cc(-c2ccc(Nc3nc(Nc4ccc(Cl)cc4)nc(Nc4ccc(Cl)cc4)n3)cc2)nc1N`, the GI50 in test [1] is 2.15 µM; in [2] it was 1.6 µM; in test [3], 1.69 µM; in test [4] it was 11.8 µM; in test [5], 3.47 µM; in test [6], 1.7 µM. The GI50 is 1.78 µM in [7], 3.37 µM in test [8], 1.79 µM in test [9] and 3.94 µM in test [10]. Further, the TGI was 7.59 µM in test [1]; 4.37 µM in test [2]; 3.24 µM in test [3]; 30.4 µM in [4]; 15.8 µM in [5]; 3.68 µM in [6]. For the same molecule, the TGI was 4.72 µM in [7], over 100 µM in test [8], 3.67 µM in [9] and over 100 µM in test [10].
With `O=c1[nH]c(=O)n(C2OC(CO)C(O)C2O)c2c1CCCC2` (stereo not given), the TGI in test [1], in [2], in test [3], in test [4], in [5] and in test [6] was over 100 µM in each case. Also, the TGI in test [7], in test [8], in test [9] and in [10] was over 100 µM in each case.

As a reminder, the TGI is the concentration giving total growth inhibition. Read a low TGI as more potent growth arrest. By GI50 is commonly meant the concentration giving 50% growth inhibition.
